Drawing on ChEMBL document CHEMBL3507680, “University of Dundee, Gates Library screen for HepG2 cell viability”, this text covers cytotoxicity for 99 compounds.

SMILES strings stand for the structures.

The nature of this series: Human HepG2 cell viability assay in 384 well format. The format is toxicity, cell-based. Further details: dose 125 nL, time 70.5 hour; concentration not given beside the values. The following applies: HepG2 cells, read-out: Inhibition.
For the compound `O=C(CCNc1ncccn1)N1CCCC(n2cccn2)C1` (centres undefined), the cytotoxicity at 70.5 h is -5.02%.
The same measure for `COc1ccc(NC(=O)CNc2cccc3c2CCCC3)c(OC)c1`: 29.7%; for `Cc1[nH]nc(CCC(=O)NCC2CCCN(C3CCCC3)C2)c1C` (centres undefined): -5.73%; for `c1c(CN2CCCCC2)nc2n1CCNC2`: 8.55%.
For `CC(C)n1cnnc1C1CCCN(S(=O)(=O)CC2CCCC2)C1` (centres undefined) the value was -106%.
For `Cc1cnc(C)c(Oc2ccc(Cl)c(CN3CCCC3)c2Cl)n1` the value was 18.5%; for `Cc1cccc(CN2C[C@@H]3COC[C@]3(CNC(=O)C3CCC3)C2)c1`, -7.15%; for `Cc1nc(-c2ccncc2)ncc1C(C)NC(=O)Cn1ccccc1=O` (centres undefined), 9.51%.
In the case of `CC(C)Oc1ccc(CN2CCC(Cc3nnc(CO)n3C)CC2)cc1`, the cytotoxicity at 70.5 h was -0.794%.
The same measure for `O=C1CNc2ncnc(Nc3cccc(Cn4cccn4)c3)c2N1`: -6.61%; for `CN1N=C(C(=O)NCCc2csc(-c3ccccc3)n2)CCC1=O`: -4.18%; for `CN(C)C(=O)c1nc2c(s1)CCN(C(=O)c1ccc(Cl)cc1)CC2`: -2.44%.
With `Cc1cc(-c2cc(N)c(=O)n(CC(=O)NC3CCCCC3)n2)c(C)o1`, the cytotoxicity at 70.5 h is -15.5%.
Take `COc1ccc(NC(=O)NC(C)Cc2ccco2)cn1` (centres undefined): the cytotoxicity at 70.5 h was -11.4%.
Take `CCc1nc(C)c(CN2CCN(c3ncnc4scc(C)c34)CC2)[nH]1`: the cytotoxicity at 70.5 h was -9.72%.
As for `CC(C)N(C)Cc1cncc2c1CCN(C(=O)c1ccccc1F)C2`, the cytotoxicity at 70.5 h is -1.95%.
In the case of `O=S(=O)(c1cccnc1)N1CCN(CC(O)c2ccccc2)CC1` (centres undefined), the cytotoxicity at 70.5 h was -3.21%.
With `O=C(CCn1cccn1)N1CCN(CC(F)F)CC1`, the cytotoxicity at 70.5 h was -1.77%.
Regarding `Cn1nc2c(cc1=O)CN(Cc1nc(-c3cccnc3)no1)CC2`, the cytotoxicity at 70.5 h was -3.78%.
The same measure for `CCCNC(=O)C(C)N1CCC(C(=O)Nc2cnn(CC)c2)CC1` (centres undefined): -4.58%; for `CC(=O)NCCCSC1CCN(c2ccccc2Cl)C1=O` (centres undefined): -10.2%; for `O=C(NC1CCS(=O)(=O)C1)c1sccc1-c1ccc(F)cc1` (centres undefined): -7.53%.
In the case of `COCCOCC(=O)N1CCC2(CCCN(C3CCOCC3)C2=O)C1` (centres undefined), the cytotoxicity at 70.5 h is 11.4%.
For `CCN(CC)c1ccc(CNC(=O)C2(C)CCOCC2)cc1F` the value was 14.4%.
As to `Cc1nccn1CCC(=O)N1CCC2(CCC(=O)N(CC3CC3)C2)CC1`, the cytotoxicity at 70.5 h was determined as 2.21%.
Consider `CCn1ncnc1CN1CCC(CNC(=O)c2cccc(C)c2)C1` (centres undefined), for which the cytotoxicity at 70.5 h is -15.4%.
With `CN1CCN(Cc2cnc3n2CCN(Cc2cccs2)C3)CC1`, the cytotoxicity at 70.5 h was found to be 3.18%.
As for `O=C(c1ccc(F)c(F)c1)N1CCCC(Nc2ccc(F)cc2)C1` (centres undefined), the cytotoxicity at 70.5 h is -5.1%.
Turning to `CC(=O)N(Cc1ncc(C)o1)C1CCN(CCOc2ccccc2)C1` (centres undefined), the cytotoxicity at 70.5 h amounted to 17.4%.
Take `Cc1ncsc1CCC(=O)N1CCN(CCn2cncn2)CC1`: the cytotoxicity at 70.5 h was -10.7%.
Take `Cc1cnn(CC(C)NCc2ccc(OCc3noc(C)n3)cc2)c1` (centres undefined): the cytotoxicity at 70.5 h is -0.0911%.
In the case of `CCCC1(NC(=O)C(c2ccccc2C)N(C)C)CC1` (centres undefined), the cytotoxicity at 70.5 h was -5.65%.
For `Cc1nn(C)c(N(C)C)c1CNCc1ccc(OCCN(C)C)cc1`, the cytotoxicity at 70.5 h was 22.3%.
With `O=C(CCC1CCCO1)NCc1ccccc1Cn1cncn1` (centres undefined), the cytotoxicity at 70.5 h is -9.42%.
Regarding `CN(Cc1cccs1)C(=O)Cn1cc(NC(=O)C(C)(C)C)cn1`, the cytotoxicity at 70.5 h was -7.51%.
Regarding `CCS(=O)(=O)N1CCC(C(=O)NC(Cc2ccsc2)c2nccs2)CC1` (centres undefined), the cytotoxicity at 70.5 h was 18.9%.
For `CC(=O)Nc1ccc(C(=O)N(C)Cc2ccc(F)cc2F)s1` the value was -61.6%; for `CN(C)c1cncc(C2CCCN(c3cnccn3)C2)n1` (centres undefined), -6.42%; for `Cc1ncn(CCNC(=O)Nc2ccc(F)c(Cl)c2)c(=O)c1C`, -3.86%.
For `CC1CCN(CCNCc2cc(-c3ccccc3)cn3nnnc23)CC1`, the cytotoxicity at 70.5 h was -3.94%.
On to `O=C(NCc1ccco1)[C@@]12CCO[C@@H]1CCN(Cc1ccccn1)C2`, for which the cytotoxicity at 70.5 h was -3.48%.
Regarding `COc1ccc(N2CCCC3(C2)CN(c2ncccn2)CCO3)cc1` (centres undefined), the cytotoxicity at 70.5 h is -2.45%.
For `O=C(NCc1nnc2ccccn12)N1CCOC(c2ccsc2)C1` (centres undefined) the value was -14.6%.
Turning to `Cc1cc(C(=O)N2CCC3(CC2)COCCN(c2cccnc2)C3)[nH]n1`, the cytotoxicity at 70.5 h was -3.67%.
For `COc1ccccc1C(CNC(=O)NCc1cc[nH]n1)N1CCCC1` (centres undefined) the value was 12.7%; for `O=C(c1cncc(N2CCCC3(CCNCC3)CC2)n1)N1CCCCC1`, 8.06%; for `CN[C@@H](C)C(=O)N(Cc1cccc(C)c1)Cc1ccccc1OC`, 14.5%.
The same measure for `CCc1nc(CN(C)C2CCN(CCn3cc(C#N)cn3)C2)no1` (centres undefined): 37.1%; for `O=C(C1CN(c2ncc(F)cn2)CC12CCOCC2)N1CCOCC1` (centres undefined): -9.96%.
In the case of `CCc1ncc2c(n1)CN(c1nnc(C)c(C)c1C#N)CC2`, the cytotoxicity at 70.5 h stood at 5.31%.
On to `Cn1nnc2c1CCN(CC1CC1)C2COCC1CC1` (centres undefined), for which the cytotoxicity at 70.5 h was -12.8%.
Regarding `COc1ccc(C)cc1CSCCn1nc2ccccn2c1=O`, the cytotoxicity at 70.5 h is -11.5%.
For `O=C(NCC1Cn2nnc(-c3ccccc3)c2CO1)c1ccc[nH]1` (centres undefined) the value was 1.41%; for `Cc1ccc2c(c1)c(CNC(=O)C1CCN(C(C)C)CC1)nn2C`, -14.4%.
For the compound `CCc1oc(C(=O)N(C)Cc2ccncc2)cc1CN(CC)CC`, the cytotoxicity at 70.5 h was -6.93%.
For `COc1ccc2nnc(C(=O)NC3CCCC3)nc2c1` the value was -4.15%; for `CN1C(=O)[C@H]2CC[C@@H]1CN(S(=O)(=O)c1ccc(Cl)cc1Cl)C2`, -10.4%; for `NC(=O)C1CCCN1Cc1ccccc1NC(=O)Cc1cccc(F)c1` (centres undefined), -0.431%.
For `Cc1cnn(C2CN(CC(O)COCc3ccc4c(c3)OCO4)C2)c1` (centres undefined) the value was -0.637%; for `O=C(Cn1nc(-c2ccc(F)cc2)oc1=O)NCc1ccc(F)cc1`, 30.8%; for `CCN(C)c1ncnc2c1CCN(C(=O)c1ccoc1C)CC2`, -10.9%.
As to `Cc1ccc(-c2nc(C(=O)N3CCOCC3)cs2)c(C)c1`, the cytotoxicity at 70.5 h was -12.3%.
Consider `CNC(=O)[C@@H](c1ccccc1)N1CCC[C@H]1C(=O)NCc1ccccn1`, for which the cytotoxicity at 70.5 h is -6.43%.
With `CS(=O)(=O)CC(=O)N(CCN1CCOCC1)Cc1ccco1`, the cytotoxicity at 70.5 h was 22.7%.
As to `Cc1nnc([C@@H]2CC[C@@H]3[C@@H](CCN3CC3CCOCC3)O2)o1`, the cytotoxicity at 70.5 h is -1.38%.
The same measure for `CCc1nc(CCNC(=O)C2CCOC2)sc1C` (centres undefined): -2.78%.
For `COc1ccc(CC(=O)N2CC[C@@H]3CN(C)S(=O)(=O)[C@@H]3CC2)cc1`, the cytotoxicity at 70.5 h was -5.74%.
The same measure for `CC(c1ccccc1)N(C)C(=O)CN1CCCc2cc(F)cc(F)c21` (centres undefined): 12.8%; for `CN(Cc1cccnc1)c1nccc(N2CCN[C@H]3CS(=O)(=O)C[C@H]32)n1`: -3.96%.
The same measure for `Cc1cc(NC(C)C(=O)NCc2ccccc2)nc(-c2ccncc2)n1` (centres undefined): -13.1%; for `CN(C)c1cc(C(=O)NCC2(c3cccc(F)c3)CCOCC2)ccn1`: -4.88%.
In the case of `CCOc1ccc(-n2nc(C)c(CC(C)=O)c2C)cc1C(N)=O`, the cytotoxicity at 70.5 h is -2.04%.
For `COCCn1cc(C(=O)N2CCCC(n3cncn3)C2)ccc1=O` (centres undefined), the cytotoxicity at 70.5 h came to 8.17%.
`Cc1c(COc2ccccc2)cccc1NC(=O)N1CC[C@H](O)C1`: the cytotoxicity at 70.5 h was -1.47%.
As for `CN(CC(=O)NCC(=O)Nc1ccc(F)cc1)Cc1cccs1`, the cytotoxicity at 70.5 h is -20.9%.
On to `O=C(NCc1ccccc1Cn1cncn1)C1CC1`, for which the cytotoxicity at 70.5 h is -11.8%.
The same measure for `Cc1ccn(CCNC(=O)C2CCN(S(=O)(=O)c3ccc(F)cc3)C2)n1` (centres undefined): 8.09%; for `CN(C)S(=O)(=O)N1CCCCCC1c1cc(-c2ccc(F)cc2)no1` (centres undefined): 1.28%; for `CN(CCc1ccccn1)[C@@H]1CCN(c2cc(C(N)=O)ccn2)C[C@H]1O`: -3.34%.
Regarding `CN(Cc1ccccn1)C1COC2(CCN(Cc3nccs3)CC2)C1` (centres undefined), the cytotoxicity at 70.5 h is 15.3%.
Take `Cc1ccsc1C(=O)N1CCN(Cc2cscn2)CC1`: the cytotoxicity at 70.5 h was -3.03%.
Turning to `CCOc1cc(CNCCCn2ccnc2)cc(Cl)c1OCC`, the cytotoxicity at 70.5 h came to 19.9%.
As to `NCC1CCCCN1C(=O)Cc1ccc(F)c(F)c1` (centres undefined), the cytotoxicity at 70.5 h was -9.5%.
`CCOCC1CN(Cc2ccoc2)Cc2nn(C)cc21` (centres undefined): the cytotoxicity at 70.5 h is -4.9%.
On to `Cc1nn(C)c(Cl)c1S(=O)(=O)N(C)c1ccc(Cl)cn1`, for which the cytotoxicity at 70.5 h was determined as 0.786%.
Turning to `COc1ncccc1-c1cc(C(N)=O)ccn1`, the cytotoxicity at 70.5 h turned out to be 19.5%.
Consider `Cc1ccc2nc(CN3CCC(O)(Cn4ccnc4)CC3)cc(O)c2c1`, for which the cytotoxicity at 70.5 h was -7.59%.
For the compound `COCCn1cc(NC(=O)NCC2CCN(c3ccccc3)C2)cn1` (centres undefined), the cytotoxicity at 70.5 h was -3.34%.
In the case of `CCN(CC)CC[C@H]1CN(C(=O)C2CCC2)CC[C@H]1CC(=O)O`, the cytotoxicity at 70.5 h was determined as 5.37%.
As to `Cc1cc2ccccc2n1CCC(=O)NCCS(C)(=O)=O`, the cytotoxicity at 70.5 h was -10.9%.
As for `CCS(=O)(=O)NCc1nc(C)cc(N2CCCC2)n1`, the cytotoxicity at 70.5 h stood at 19.2%.
For `COC[C@H]1CC[C@@H]2[C@@H](CCN2Cc2ccco2)O1` the value was 20.4%.
Regarding `CC(=O)NCCC(=O)Nc1cccc(N2CCN(CC3CC3)CC2)c1`, the cytotoxicity at 70.5 h was -0.54%.
Consider `Cc1cc2n(n1)CC(CNC1CCN(CCc3ccccc3)CC1)CN2` (centres undefined), for which the cytotoxicity at 70.5 h came to 0.368%.
As to `COc1ccc2nnc(CCC(=O)Nc3nc4c(s3)CCCCC4)n2n1`, the cytotoxicity at 70.5 h is -17.3%.
Consider `O=C(CCc1nc2cc(Br)cnc2[nH]1)NCCN1CCOCC1`, for which the cytotoxicity at 70.5 h was -10.2%.
For `CSCc1cc(F)ccc1CNCc1ccncc1`, the cytotoxicity at 70.5 h was determined as 4.11%.
The same measure for `Cc1ccc(NS(=O)(=O)c2cc3c(c(C(=O)O)c2)OCCO3)cc1C`: -5.96%; for `CCN(C(=O)c1nc2c(s1)CCCN2Cc1ccccc1)C(C)C`: -7.5%.
